Measurements as given in publication PMC5844530, “Fosmetpantotenate (RE-024), a phosphopantothenate replacement therapy for pantothenate kinase-associated neurodegeneration: Mechanism of action and efficacy in nonclinical models” (PLoS ONE, 2018).
Values joined by “and” are separate entries in the source; they are usually repeats but may differ in a detail not shown here. Equal entries are not always repeated.

Legend:
[1] = Pharmacokinetics in whole blood, cynomolgus monkeys; conditions: male, cynomolgus monkey, in vivo, 300 mg/kg, fosmetpantotenate 300 mg/kg oral, blood
Protocol: (§1) The whole blood samples (0.5 mL) were collected into syringes that were prefilled with 2.5 mL of ice-cold 0.1% formic acid in acetonitrile. The volume ratio of the whole blood to 0.1% formic acid in acetonitrile was 1/5 (v/v). Samples were frozen (-70°C) until analyzed by LC-MS/MS.
(§2) Standard curves and quality control (QC) samples were prepared fresh on the day of analysis by serial dilution of the standard mixture in quenched whole blood (1 part of blood to 5 parts of 0.1% formic acid in acetonitrile) and centrifuged. […] The frozen study samples were thawed in an ice/water bath and centrifuged. Supernatant (50 μL) from standards, QC samples, and study samples was transferred to a 96-well plate and dried completely under nitrogen. The dried residues were reconstituted with 100 μL of 0.1% formic acid in water containing internal standard (5 ng/mL of ^15N/^13C3-RE-024-02) and analyzed by LC-MS/MS.
(§3) LC-MS/MS analysis for blood pharmacokinetic samples: Samples were analyzed using an Agilent 1100 binary pump (Agilent Technologies, Santa Clara, CA, USA), connected to an AB Sciex API 6500 mass spectrometer (SCIEX, Framingham, MA, USA). An electrospray ionization source was used, scanning in the positive mode. […] The chromatography column was a Varian Metasil AQ 120–5 C18 column, 5 μm, 50 x 2.00 mm (Part No. A0530050X020) at ambient temperature, with a 0.5 mL/min flow rate and a 20 μL injection volume. Mobile phase (A) consisted of 0.1% formic acid in water; while mobile phase (B) consisted of 0.1% formic acid in acetonitrile:water (9:1, v/v).
(§4) Quantitation of in vivo samples: Peak areas were integrated using Analyst software (AB Sciex, Concord, Ontario, Canada). […] Calibration standards (at a minimum 7 per curve) were fit by linear regression with (1/x^2) weighting. QC samples were used (triplicate) at 3 concentrations for all tandem mass spectrometry (MS/MS) runs.
(§5) Pharmacokinetic calculations: PK analysis was performed using Phoenix WinNonlin®, Build 6.3.0.395 (Certara, Princeton, NJ, USA) using a non-compartmental model (PO dose = model 200 for extravascular dosing). […] Post-dose concentrations below the limit of quantitation (BLQ) were omitted from calculation.

[2] = Pharmacokinetics in whole blood, CD-1 mice; conditions: blood; for concentration at 0.083 h / concentration at 0.167 h / concentration at 0.333 h / concentration at 0.5 h / concentration at 1 h / concentration at 2 h / concentration at 0.033 h / concentration at 4 h: male, CD-1, mouse, in vivo
Protocol: as §1, §2, §3, §4, §5

[3] = Fosmetpantotenate Mean Conc., male cynomolgus monkeys
[4] = Fosmetpantotenate blood concentration, Cyno #1, male cynomolgus monkeys
[5] = Fosmetpantotenate blood concentration, Cyno #2, male cynomolgus monkeys

COC(=O)CCNC(=O)[C@H](O)C(C)(C)COP(=O)(N[C@@H](C)C(=O)OC)Oc1ccccc1 (mixture of isomers) [Fosmetpantotenate]
concentration at 2 h [1, 3]: 13200 nM
concentration at 4 h [1, 3]: 249 nM
concentration at 0.083 h [1, 4]: 41.9 nM
concentration at 0.167 h [1, 4]: 93.8 nM
concentration at 0.333 h [1, 4]: 128 nM
concentration at 0.5 h [1, 4]: 211 nM
concentration at 1 h [1, 4]: 9950 nM
concentration at 2 h [1, 4]: 3460 nM
concentration at 4 h [1, 4]: 231 nM
concentration at 0.083 h [1, 5]: 351 nM
concentration at 0.167 h [1, 5]: 1720 nM
concentration at 0.333 h [1, 5]: 972 nM
concentration at 0.5 h [1, 5]: 541 nM
concentration at 1 h [1, 5]: 27400 nM
concentration at 2 h [1, 5]: 22900 nM
concentration at 4 h [1, 5]: 267 nM
Conc. ([2]; fosmetpantotenate 100 mg/kg PO, 0.033 hr, individual animals): 6.22 nM and BQL and 218.78 ^(a) nM and 9.40 nM
Conc. ([2]; fosmetpantotenate 100 mg/kg PO, 0.083 hr, individual animals): BQL and 1.94 nM
Conc. ([2]; fosmetpantotenate 100 mg/kg PO, 0.167 hr, individual animals): BQL and 2.30 nM
Conc. ([2]; fosmetpantotenate 100 mg/kg PO, 0.333 hr, individual animals): 2.38 nM and 1.98 nM
Conc. ([2]; fosmetpantotenate 100 mg/kg PO, 0.5 hr, individual animals): BQL and 1.43 nM
Conc. ([2]; fosmetpantotenate 100 mg/kg PO, 1 hr, individual animals): BQL and 1.77 nM
Conc. ([2]; fosmetpantotenate 100 mg/kg PO, 2 hr, individual animals): BQL
Mean Conc. ([2]; fosmetpantotenate 100 mg/kg PO, 4 hr): BQL
Conc. ([2]; fosmetpantotenate 100 mg/kg PO, 4 hr, individual animals): BQL
Mean Conc. ([2]; fosmetpantotenate 100 mg/kg PO, 8 hr): BQL
Conc. ([2]; fosmetpantotenate 100 mg/kg PO, 8 hr, individual animals): BQL
Conc. ([2]; fosmetpantotenate 300 mg/kg PO, 0.033 hr, individual animals): 1.41 nM and 49.95 nM and 66.65 nM and 2.76 nM
Conc. ([2]; fosmetpantotenate 300 mg/kg PO, 0.083 hr, individual animals): 5.50 nM and 4.59 nM and 18.72 nM and 28.96 nM
Conc. ([2]; fosmetpantotenate 300 mg/kg PO, 0.167 hr, individual animals): 1.62 nM and 1.56 nM and 3.71 nM and BQL
Conc. ([2]; fosmetpantotenate 300 mg/kg PO, 0.333 hr, individual animals): 1.22 nM and 1.07 nM and 1.14 nM
Conc. ([2]; fosmetpantotenate 300 mg/kg PO, 0.5 hr, individual animals): 1.14 nM and 1.24 nM
Conc. ([2]; fosmetpantotenate 300 mg/kg PO, 1 hr, individual animals): BQL
Mean Conc. ([2]; fosmetpantotenate 300 mg/kg PO, 2 hr): BQL
Conc. ([2]; fosmetpantotenate 300 mg/kg PO, 2 hr, individual animals): BQL
Conc. ([2]; fosmetpantotenate 300 mg/kg PO, 4 hr, individual animals): BQL
Mean Conc. ([2]; fosmetpantotenate 300 mg/kg PO, 8 hr): BQL
Conc. ([2]; fosmetpantotenate 300 mg/kg PO, 8 hr, individual animals): BQL
Fosmetpantotenate Conc. ([2]; male CD-1 mice, fosmetpantotenate 700 mg/kg oral, 0.033 hr, individual animals, BQL <1.02 nM): 61.71 nM and 230.17 nM and 51.34 nM and 195.45 nM
Fosmetpantotenate Conc. ([2]; male CD-1 mice, fosmetpantotenate 700 mg/kg oral, 0.083 hr, individual animals, BQL <1.02 nM): 24.28 nM and 3756.01(a) nM and 8.28 nM and 16.06 nM
Fosmetpantotenate Conc. ([2]; male CD-1 mice, fosmetpantotenate 700 mg/kg oral, 0.167 hr, individual animals, BQL <1.02 nM): 575.42 nM and 158.08 nM and 6.93 nM and 488.15 nM
Fosmetpantotenate Conc. ([2]; male CD-1 mice, fosmetpantotenate 700 mg/kg oral, 0.333 hr, individual animals, BQL <1.02 nM): 22.76 nM
Fosmetpantotenate Conc. ([2]; male CD-1 mice, fosmetpantotenate 700 mg/kg oral, 0.5 hr, individual animals, BQL <1.02 nM): 3.33 nM and 21.75 nM and 6.47 nM and 283.28 nM
Fosmetpantotenate Conc. ([2]; male CD-1 mice, fosmetpantotenate 700 mg/kg oral, 1 hr, individual animals, BQL <1.02 nM): 128.99 nM and 6.41 nM and 3.33 nM and 67.53 nM
Fosmetpantotenate Conc. ([2]; male CD-1 mice, fosmetpantotenate 700 mg/kg oral, 2 hr, individual animals, BQL <1.02 nM): 1.29 nM and 1.18 nM and 1.64 nM and 16.31 nM
Fosmetpantotenate Conc. ([2]; male CD-1 mice, fosmetpantotenate 700 mg/kg oral, 4 hr, individual animals, BQL <1.02 nM): BQL
Fosmetpantotenate Conc. ([2]; male CD-1 mice, fosmetpantotenate 700 mg/kg oral, 8 hr, individual animals, BQL <1.02 nM): BQL
Fosmetpantotenate Mean Conc. ([2]; male CD-1 mice, fosmetpantotenate 700 mg/kg oral, 8 hr, mean, BQL <1.02 nM): BQL
concentration at 0.083 h ([2]; 100 mg/kg, Conc., fosmetpantotenate 100 mg/kg PO, 0.083 hr, individual animals): 2 nM
concentration at 0.167 h ([2]; 100 mg/kg, Conc., fosmetpantotenate 100 mg/kg PO, 0.167 hr, individual animals): 1.31 nM
concentration at 0.333 h ([2]; 100 mg/kg, Conc., fosmetpantotenate 100 mg/kg PO, 0.333 hr, individual animals): 1.31 nM
concentration at 0.5 h ([2]; 100 mg/kg, Conc., fosmetpantotenate 100 mg/kg PO, 0.5 hr, individual animals): 1.35 nM
concentration at 1 h ([2]; 100 mg/kg, Conc., fosmetpantotenate 100 mg/kg PO, 1 hr, individual animals): 1.26 nM
concentration at 2 h ([2]; 100 mg/kg, Conc., fosmetpantotenate 100 mg/kg PO, 2 hr, individual animals): 2.97 nM
concentration at 0.033 h ([2]; 100 mg/kg, Mean Conc., fosmetpantotenate 100 mg/kg PO, 0.033 hr): 7.81 nM
concentration at 0.083 h ([2]; 100 mg/kg, Mean Conc., fosmetpantotenate 100 mg/kg PO, 0.083 hr): 1.97 nM
concentration at 0.167 h ([2]; 100 mg/kg, Mean Conc., fosmetpantotenate 100 mg/kg PO, 0.167 hr): 1.8 nM
concentration at 0.333 h ([2]; 100 mg/kg, Mean Conc., fosmetpantotenate 100 mg/kg PO, 0.333 hr): 1.74 nM
concentration at 0.5 h ([2]; 100 mg/kg, Mean Conc., fosmetpantotenate 100 mg/kg PO, 0.5 hr): 1.39 nM
concentration at 1 h ([2]; 100 mg/kg, Mean Conc., fosmetpantotenate 100 mg/kg PO, 1 hr): 1.52 nM
concentration at 2 h ([2]; 100 mg/kg, Mean Conc., fosmetpantotenate 100 mg/kg PO, 2 hr): 2.97 nM
concentration at 0.333 h ([2]; 300 mg/kg, Conc., fosmetpantotenate 300 mg/kg PO, 0.333 hr, individual animals): 1.43 nM
concentration at 0.5 h ([2]; 300 mg/kg, Conc., fosmetpantotenate 300 mg/kg PO, 0.5 hr, individual animals): 1.83 nM
concentration at 1 h ([2]; 300 mg/kg, Conc., fosmetpantotenate 300 mg/kg PO, 1 hr, individual animals): 1.14 nM
concentration at 4 h ([2]; 300 mg/kg, Conc., fosmetpantotenate 300 mg/kg PO, 4 hr, individual animals): 1.03 nM
concentration at 0.033 h ([2]; 300 mg/kg, Mean Conc., fosmetpantotenate 300 mg/kg PO, 0.033 hr): 30.2 nM
concentration at 0.083 h ([2]; 300 mg/kg, Mean Conc., fosmetpantotenate 300 mg/kg PO, 0.083 hr): 14.4 nM
concentration at 0.167 h ([2]; 300 mg/kg, Mean Conc., fosmetpantotenate 300 mg/kg PO, 0.167 hr): 2.3 nM
concentration at 0.333 h ([2]; 300 mg/kg, Mean Conc., fosmetpantotenate 300 mg/kg PO, 0.333 hr): 1.22 nM
concentration at 0.5 h ([2]; 300 mg/kg, Mean Conc., fosmetpantotenate 300 mg/kg PO, 0.5 hr): 1.36 nM
concentration at 1 h ([2]; 300 mg/kg, Mean Conc., fosmetpantotenate 300 mg/kg PO, 1 hr): 1.14 nM
concentration at 4 h ([2]; 300 mg/kg, Mean Conc., fosmetpantotenate 300 mg/kg PO, 4 hr): 1.03 nM
concentration at 0.333 h ([2]; 700 mg/kg, Fosmetpantotenate Conc., male CD-1 mice, fosmetpantotenate 700 mg/kg oral, 0.333 hr, individual animals, BQL <1.02 nM): 24.4 nM
concentration at 4 h ([2]; 700 mg/kg, Fosmetpantotenate Conc., male CD-1 mice, fosmetpantotenate 700 mg/kg oral, 4 hr, individual animals, BQL <1.02 nM): 1.14 nM
concentration at 0.033 h ([2]; 700 mg/kg, Fosmetpantotenate Mean Conc., male CD-1 mice, fosmetpantotenate 700 mg/kg oral, 0.033 hr, mean, BQL <1.02 nM): 135 nM
concentration at 0.083 h ([2]; 700 mg/kg, Fosmetpantotenate Mean Conc., male CD-1 mice, fosmetpantotenate 700 mg/kg oral, 0.083 hr, mean, BQL <1.02 nM): 16.2 nM
concentration at 0.167 h ([2]; 700 mg/kg, Fosmetpantotenate Mean Conc., male CD-1 mice, fosmetpantotenate 700 mg/kg oral, 0.167 hr, mean, BQL <1.02 nM): 307 nM
concentration at 0.333 h ([2]; 700 mg/kg, Fosmetpantotenate Mean Conc., male CD-1 mice, fosmetpantotenate 700 mg/kg oral, 0.333 hr, mean, BQL <1.02 nM): 23.6 nM
concentration at 0.5 h ([2]; 700 mg/kg, Fosmetpantotenate Mean Conc., male CD-1 mice, fosmetpantotenate 700 mg/kg oral, 0.5 hr, mean, BQL <1.02 nM): 78.7 nM
concentration at 1 h ([2]; 700 mg/kg, Fosmetpantotenate Mean Conc., male CD-1 mice, fosmetpantotenate 700 mg/kg oral, 1 hr, mean, BQL <1.02 nM): 51.6 nM
concentration at 2 h ([2]; 700 mg/kg, Fosmetpantotenate Mean Conc., male CD-1 mice, fosmetpantotenate 700 mg/kg oral, 2 hr, mean, BQL <1.02 nM): 5.11 nM
concentration at 4 h ([2]; 700 mg/kg, Fosmetpantotenate Mean Conc., male CD-1 mice, fosmetpantotenate 700 mg/kg oral, 4 hr, mean, BQL <1.02 nM): 1.14 nM
